System: normal, non-HF ovine model
Test: Correlation of right and left ventricle contractility (max dP/dt) after injection, heartbeat-by-heartbeat
Type: in vivo
Details: max(dP/dt) used as surrogate for contractility, after injection (calcium: 5 mL)
Excerpt: The correlation was a heartbeat-by-heartbeat analysis. Pressure measurements, taken by a Millar catheter comprising a MEMS pressure sensor, in units of max(dP/dt) was used as a surrogate for contractility. The first change, a dobutamine injection, provided a very high contractility increase greater than 500%. The average correlation between right ventricle contractility and left ventricle contractility was very good at 0.91, where 1.00 is a perfect correlation. Accordingly, if a subject is given a dobutamine injection, measuring changes to right ventricle contractility can provide accurate information about changes to left ventricle contractility. The first change was repeated three times. The second change, calcium injection at 5 mL, provided a contractility increase of about 20%. […] The average correlation between right ventricle contractility and left ventricle contractility using a Millar (MEMS) sensor on a catheter was very good at 0.91. The average correlation between right ventricle contractility and left ventricle contractility using a fluid-filled lumen of a Swan-Ganz catheter in communication with an external pressure sensor was also very good at 0.87. Accordingly, under certain circumstances such as measurement of an animal (normal, non-HF ovine model) model, if a subject is given a calcium injection, measuring changes to right ventricle contractility with a MEMS sensor or a fluid filled lumen can provide accurate information about changes to left ventricle contractility.

Compound | Contractility % Increase [%] | Contractility % Increase (listed as dobutamine injection) | Contractility % Increase (listed as calcium injection)
CC(CCc1ccc(O)cc1)NCCc1ccc(O)c(O)c1 (stereo not shown) [Dobutamine Injection, dobutamine] | >500 | greater than 500% | –
calcium [Calcium Injection] | ~20 | – | about 20%

Source: patent US11648395B2, “Electrode assemblies for neuromodulation” (Cardionomic, Inc., priority 2018, dated 2023)
